Laboratory results from patent publication US20230235301A1, “Compounds and Methods for Treating, Ameliorating, or Preventing Herpes Ocular Keratitis” (THE TRUSTEES OF THE UNIVERSITY OF PENNSYLVANIA, priority 2020, published 2023).
Read-outs that look alike come from different tables or passages of the source. Positions of bridges follow the written chain, without caps; N, C: chain ends. Non-standard residues stand in square brackets, D forms with d. Residues, ends and D or L forms follow the SMILES beside them. No end group written: not given here. S5 = C=CCCC[C@](C)(N)C(=O)O

Tests used:
[1] = molecular target: HSV-1 UL30 DNA Polymerase and UL42 Processivity Factor (Human herpesvirus 1, UniProt P10226); experiment: In vitro processive DNA synthesis assay (ELISA-based Rapid Plate Assay); type: biochemical; details: for IC50, µM* (HSV1 UL30+UL42): inhibition of HSV-1 processive DNA synthesis in vitro by UL30 and UL42
Procedure: The assay was performed by the enzyme-linked immunosorbent assay (ELISA)-based Rapid Plate Assay (J. Virol. Methods 2000, 88:219-225; Methods Mol. Biol. 2005, 292:481-492; J. Med. Chem. 2008, 51:6563-6570), using in vitro translated viral DNA polymerase and processivity factor.
Briefly, the assay comprised a 100-nucleotide single-stranded DNA template that has biotin covalently linked to the 5′ end. The biotin-labeled oligonucleotide template was immobilized onto streptavidin, which was coated onto each well of a micro-titer plate. An oligonucleotide primer (15mer) was annealed to the 3′ end of the biotin-labeled DNA template. HSV-1 UL-30 and HSV-1 UL-42 (either in vitro translated or purified) were added and incubated with serial dilutions of the stapled peptides. DNA synthesis was measured by direct incorporation of the 4 dNTPs as well as the signal nucleotide, digoxigenin-dUTP (1:5, dig-dUTP:dTTP). A peroxidase-conjugated anti-digoxigenin antibody that recognizes the newly synthesized DNA generated a colorimetric reaction that was quantified with a plate reader at 405 nm.
In certain non-limiting embodiments, the shown staples (or tethers), which provide rigidity, had linked-spacing of one full turn (i,i+4) or two full turns (i,i+7) of the helix to stay in helical register (3.6 amino acids/turn). In other embodiments, the staple was on the solvation side of the helix. Residues on the opposite side contact the PF target protein UL42. These UL42 residues are D63, R64 and K289 (FIGS. 13A-13C). Hydrogen bonds between residues of UL42 and C-Pol are shown as dotted lines. The IC50 values recited herein were quantitated using the assay described in U.S. Pat. No. 6,204,028, which is incorporated herein in its entirety by reference (FIG. 14).

[2] = test system: HSV-1; experiment: microbe, parasite or virus in culture; type: cell-based
Procedure: Cells with ~90% confluence in 48-well plates were infected by absorbing virus (~100 PFU/well) for 1 h in 100 µL growth medium followed by adding 200 µL culture medium containing DMSO vehicle or serially diluted peptides or Acyclovir (Tocris Bioscience-Fisher Scientific) to each well of the plate. DMSO was maintained at 1% throughout the treatment. Cells were subsequently fixed and stained with 300 µL PBS containing 4% formaldehyde and 0.2% crystal violet overnight at room temperature. HSV-1 plaques were quantified at ~55 h post-infection of Vero cells. VV (WR strain) infection of BSC-1 cells was analyzed for plaque formation after 24 h. The plaque reduction assays were performed in duplicate and independently repeated twice. Cells were stained, and plaques counted under a dissecting microscope. Data were plotted on the GraphPad Prism.
Standard viral plaque reduction assays were conducted in Vero cells to determine if any of the five stapled peptides (S-pep1/3/4/7/8) that were able to block processive DNA synthesis, could also block HSV-1 infection. To minimize possible interference of HSV-1 cell attachment and entry by the peptides, cells were first infected by absorbing the virus for 1 h, followed by treatment with peptides at serial dilutions. […] The EC50 values of both S-pep3 and S-pep8 were approximately 100 µM (FIG. 15C and FIG. 15F). Additionally, S-pep4 was toxic at 12.5 µM, which precluded further optimization.

[3] = molecular target: T1, HSV-1 Processivity Factor (UL42) (HSV-1 (strain KOS), UniProt P10226 1-488); experiment: cell-based or functional assay
T1 sequence: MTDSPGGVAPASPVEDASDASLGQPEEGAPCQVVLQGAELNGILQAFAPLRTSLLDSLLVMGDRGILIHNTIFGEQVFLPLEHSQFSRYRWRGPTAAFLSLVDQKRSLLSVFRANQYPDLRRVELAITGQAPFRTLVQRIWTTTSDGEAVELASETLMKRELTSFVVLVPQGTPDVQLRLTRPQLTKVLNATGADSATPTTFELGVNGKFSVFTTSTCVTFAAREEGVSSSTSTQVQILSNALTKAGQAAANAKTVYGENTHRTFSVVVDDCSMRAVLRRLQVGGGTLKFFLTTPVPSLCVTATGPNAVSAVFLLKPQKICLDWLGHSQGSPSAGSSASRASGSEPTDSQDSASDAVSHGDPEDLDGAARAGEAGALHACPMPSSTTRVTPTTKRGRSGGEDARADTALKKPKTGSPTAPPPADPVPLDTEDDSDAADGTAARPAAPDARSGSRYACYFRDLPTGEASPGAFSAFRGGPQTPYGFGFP

`CC(=O)N[C@@]1(C)CCCC=CCCC[C@@](C)(C(=O)N[C@@H](CC(C)C)C(=O)N[C@@H](Cc2c[nH]cn2)C(=O)N[C@@H](CCCNC(=N)N)C(=O)N[C@@H](C)C(=O)N[C@@H](Cc2ccccc2)C(N)=O)NC(=O)[C@H](CCCNC(=N)N)NC(=O)[C@H](CCCNC(=N)N)NC(=O)[C@H]([C@@H](C)O)NC1=O` [S-pep2, Ac-XTRRXLBRAF-NH2] (Ac-[S5]TRR[S5]LHRAF-NH2; staple 1-5) was tested, and the IC50 [1] was greater than 200 µM.

In the case of `CSCC[C@H](NC(=O)[C@H](CCCNC(=N)N)NC(=O)[C@H](CCCNC(=N)N)NC(=O)[C@@H](NC(=O)[C@H](CCC(=O)O)NC(C)=O)[C@@H](C)O)C(=O)N[C@@H](CC(C)C)C(=O)N[C@@H](Cc1c[nH]cn1)C(=O)N[C@@]1(C)CCCC=CCCC[C@@](C)(C(=O)N[C@@H](CC(C)C)C(=O)N[C@@H](C)C(=O)O)NC(=O)[C@H](CC(=O)O)NC(=O)[C@H](Cc2ccccc2)NC(=O)[C@H](C)NC1=O` [S-pep8, Ac-ETRRMLHXAFDXLA] (Ac-ETRRMLH[S5]AFD[S5]LA-OH; staple 8-12; C-terminus assumed), the EC50 ([2]; 1 h) is reported as roughly 100 µM.

Work on `CC(=O)N[C@@H](C)C(=O)N[C@@H](CCC(=O)O)C(=O)N[C@@]1(C)CCCC=CCCC[C@@](C)(C(=O)N[C@@H](CC(C)C)C(=O)N[C@@H](Cc2c[nH]cn2)C(=O)N[C@@H](CCCNC(=N)N)C(=O)N[C@@H](C)C(=O)N[C@@H](Cc2ccccc2)C(=O)N[C@@H](CC(=O)O)C(=O)N[C@H](C(=O)N[C@@H](CC(C)C)C(=O)N[C@@H](C)C(=O)O)[C@@H](C)O)NC(=O)[C@H](CCCNC(=N)N)NC(=O)[C@H](CCCNC(=N)N)NC(=O)[C@H]([C@@H](C)O)NC1=O` [S-pep3, Ac-AEXTRRXLHRAFDTLA] (Ac-AE[S5]TRR[S5]LHRAFDTLA-OH; staple 3-7; C-terminus assumed) yielded an EC50 ([2]; 1 h) of roughly 100 µM.

With `CSCC[C@H](NC(=O)[C@H](CCCNC(=N)N)NC(=O)[C@H](CCCNC(=N)N)NC(=O)[C@@H](NC(=O)[C@H](CCC(=O)O)NC(C)=O)[C@@H](C)O)C(=O)N[C@@H](CC(C)C)C(=O)N[C@@H](Cc1c[nH]cn1)C(=O)N[C@@H](CCCNC(=N)N)C(=O)N[C@@H](C)C(=O)N[C@@H](Cc1ccccc1)C(=O)N[C@@H](CC(=O)O)C(=O)N[C@H](C(=O)N[C@@H](CC(C)C)C(=O)N[C@@H](C)C(=O)O)[C@@H](C)O` [N-pep, Ac-ETRRMLHRAFDTLA, reference compound] the IC50 [1] was greater than 200 µM, the “IC50, µM* (HSV1 UL30+UL42)” value ([1]; listed as Non-stapled) was “no inhibition” and the “IC50, µM* (HSV1 UL30+UL42)” value ([1]; listed as native (unstapled) C-Pol peptide) was “fails to inhibit”. For the same molecule, the EC50 ([2]; 1 h) was greater than 200 µM.

`CSCC[C@@H]1NC(=O)[C@H](CCCNC(=N)N)NC(=O)[C@H](CCCNC(=N)N)NC(=O)[C@@](C)(NC(C)=O)CCCC=CCCC[C@@](C)(C(=O)N[C@@H](Cc2c[nH]cn2)C(=O)N[C@@H](CCCNC(=N)N)C(=O)N[C@@H](C)C(=O)N[C@@H](Cc2ccccc2)C(=O)N[C@@H](CC(=O)O)C(=O)N[C@H](C(=O)N[C@@H](CC(C)C)C(=O)N[C@@H](C)C(=O)O)[C@@H](C)O)NC1=O` [S-pep5, Ac-XRRMXHRAFDTLA] (Ac-[S5]RRM[S5]HRAFDTLA-OH; staple 1-5) was tested, and the IC50 [1] was greater than 200 µM and the “IC50, µM* (HSV1 UL30+UL42)” value [1] was “failed to inhibit”.

In the case of `CC(=O)N[C@@H](CCC(=O)O)C(=O)N[C@H](C(=O)N[C@@H](CCCNC(=N)N)C(=O)N[C@@H](CCCNC(=N)N)C(=O)N[C@@]1(C)CCCC=CCCC[C@@](C)(C(=O)N[C@@H](Cc2ccccc2)C(=O)N[C@@H](CC(=O)O)C(=O)N[C@H](C(=O)N[C@@H](CC(C)C)C(=O)N[C@@H](C)C(=O)O)[C@@H](C)O)NC(=O)[C@H](CCCNC(=N)N)NC(=O)[C@H](Cc2c[nH]cn2)NC(=O)[C@H](CC(C)C)NC1=O)[C@@H](C)O` [S-pep7, Ac-ETRRXLHRXFDTLA] (Ac-ETRR[S5]LHR[S5]FDTLA-OH; staple 5-9; C-terminus assumed), the EC50 ([2]; 1 h) is reported as 35.5 µM.

For `Nc1nc2c(ncn2COCCO)c(=O)[nH]1` [Acyclovir, reference compound], the EC50 ([2]; Human alphaherpesvirus 1, Vero cells, peptides added after 1 h virus absorption, plaques counted at ~55 h, read-out: EC50, inhibition of HSV-1 plaque formation) was 0.81 µM.

With `CC(=O)N[C@@]1(C)CCCC=CCCC[C@@](C)(C(=O)N[C@@H](CC(C)C)C(=O)N[C@@H](Cc2c[nH]cn2)C(=O)N[C@@H](CCCNC(=N)N)C(=O)N[C@@H](C)C(=O)N[C@@H](Cc2ccccc2)C(=O)N[C@@H](CC(=O)O)C(=O)N[C@H](C(=O)N[C@@H](CC(C)C)C(=O)N[C@@H](C)C(=O)O)[C@@H](C)O)NC(=O)[C@H](CCCNC(=N)N)NC(=O)[C@H](CCCNC(=N)N)NC(=O)[C@H]([C@@H](C)O)NC1=O` [S-pep1, Ac-XTRRXLHRAFDTLA] (Ac-[S5]TRR[S5]LHRAFDTLA-OH; staple 1-5; C-terminus assumed) the “IC50, µM* (HSV1 UL30+UL42)” value [1] was “successfully inhibits” and the EC50 ([2]; 1 h) was 43 µM.

With Ac-[S5]TRR[S5]LHRAFDTLA (staple 1-5) [S-pep1] the “IC50, µM (HSV1 UL30+UL42); HSV-1 DNA synthesis inhibition” value (“IC50 … HSV-1 DNA synthesis inhibition” below) [3] was 12 µM.

In the case of Ac-RTRR[S5]LHR[S5]FDTLA (staple 5-9) [S-pep7C], the “IC50 … HSV-1 DNA synthesis inhibition” value [3] is reported as 1.7 µM.

With Ac-RRTRR[S5]LHR[S5]FDTLA (staple 6-10) [S-pep7D] the “IC50 … HSV-1 DNA synthesis inhibition” value [3] was 2 µM.

For Ac-ETRRMLH[S5]AFD[S5]LA (staple 8-12) [S-pep8], the “IC50 … HSV-1 DNA synthesis inhibition” value [3] was 20.7 µM.

For Ac-[S5]TRR[S5]LHRAF-NH2 (staple 1-5) [S-pep2], the “IC50 … HSV-1 DNA synthesis inhibition” value [3] was greater than 200 µM.

With Ac-AE[S5]TRR[S5]LHRAFDTLA (staple 3-7) [S-pep3] the “IC50 … HSV-1 DNA synthesis inhibition” value [3] was 12.7 µM.

With Ac-[S5]RRM[S5]HRAFDTLA (staple 1-5) [S-pep5] the “IC50 … HSV-1 DNA synthesis inhibition” value [3] was greater than 200 µM.

In the case of Ac-ETRR[S5]LHR[S5]FDTLA (staple 5-9) [S-pep7], the “IC50 … HSV-1 DNA synthesis inhibition” value [3] is reported as 5.5 µM.

With Ac-VTRR[S5]LHR[S5]FDTLA (staple 5-9) [S-pep7A] the “IC50 … HSV-1 DNA synthesis inhibition” value [3] was 1.7 µM.

Ac-VVTRR[S5]LHR[S5]FDTLA (staple 6-10) [S-pep7B] was tested, and the “IC50 … HSV-1 DNA synthesis inhibition” value [3] was 1 µM.
